# Laboratory results reported in patent US10081812B2, “D-amino acid-inducible gene expression system for Rhodosporidium and Rhodotorula” (TEMASEK LIFE SCIENCES LABORATORY LIMITED, priority 2015, dated 2018).
# How the values were obtained:
# DAO1 mRNA = experiment: qRT-PCR of DAO1 mRNA transcripts in R. toruloides cells; type: cell-based
# Procedure: (§1) For gene induction studies, modified MinAB (MinABs) (28) with carbon source and nitrogen source (NH4NO3) omitted was used as basal medium. Carbon source (10 g/L glucose, 70 mM L-alanine or D-alanine) and nitrogen source (70 mM ammonium sulfate, L-alanine or D-alanine) were supplemented as required. For stress treatments, YPD broth was used as the basal medium and cultured after supplementation of various chemicals, or in harsh conditions. Unless indicated otherwise, cell cultures were conducted in a rotary shaker under 28° C. and 250 rpm.
# Total RNA was treated with DNase I (Roche Diagnostics) and recovered by ethanol precipitation to remove the trace DNA. cDNA was synthesized using the iScript™ Reverse Transcription Supermix for RT (Bio-Rad, USA) and real-time PCR was conducted in ABI PRISM 7900HT Sequence Detection System (Life Technologies, USA) using the ABI SYBR® Select Master Mix (Life Technologies, USA). PCR conditions were as followed: an initial 50° C. for 2 min and 95° C. denaturation step for 10 min followed by 40 cycles of denaturation at 95° C. for 15 s, annealing at 60° C. for 1 min. Triplicates were used for all qRT-PCR analyses. The data was acquired using the software SDS 2.4 (Applied Biosystems, Life Technologies, USA) and relative gene expression was calculated against the reference gene ACT1 (nucleotide sequence: SEQ ID NO:89; amino acid sequence: SEQ ID NO:90) with the 2-ΔΔCt method through the RQ Manager software v1.2.1 (Applied Biosystems, USA).
# To investigate the regulation DAO1 gene expression, the mRNA level in cells cultured in YPD medium supplemented with D-alanine or L-alanine levels was quantitated by qRT-PCR using the Actin mRNA (ACT1) as the reference. As expected, DAO1 mRNA expression was negligible when cells were cultured in MinABs medium supplemented with L-alanine or ammonium sulfate as the sole nitrogen source (FIG. 4B).
# DAO1 promoter (PDAO1in) = experiment: Luciferase reporter assay of 2.2 kb intron 1-containing DAO1 promoter (PDAO1in) reporter strains; type: cell-based, R. toruloides; settings: for induction of DAO1 promoter by D-amino acid: 70 mM as the sole carbon and nitrogen source in MinABs, 21 h induction, FIG. 8
# Procedure: as §1
# Yeast strains transformed with PDAOinx::RtLUC2 cassettes were cultured in YPD broth to mid-exponential phase. Cells were water-washed twice and resuspended in MinABs plus 70 mM of either D-alanine or L-alanine to a cell optical density at 600 nm (OD600) of 0.5 and continued culturing at 30° C., 250 rpm for 21 hr. Cells were harvested, washed and resuspended in PBS buffer supplemented with 1 mM DTT, 3 mM β-mercaptoethanol and 1 mM PMSF (pH7.4) supplemented with equal volume of 0.5 mm glass beads (Sigma-Aldrich, USA), and lysed with FastPrep 24™ 5 G (MP Biomedicals, Irvine, Calif., USA) for 40 seconds. The protein concentration and luciferase activity was determined using Bradford method and a commercial luciferase assay kit (Promega, USA) under the supplier's protocol, respectively. All data was measured and acquired with the Infinite M200 plate reader coupled with the iCycler software (version 3.0, Tecan, Salzburg, Austria). All experiments were performed in both biological and statistical triplicates. For determination of relative promoter activity (RPA), luminescence value was subtracted against the blank or negative control (promoter-less strain), normalized against the protein concentration, then normalized against either the values of PGPD1 or the maximum reading.
# To investigate the effects of carbon and nitrogen sources on promoter activity, 3 strains with 2.2 kb intron 1-containing DAO1 promoter (PDAO1in) knocked in at the CAR2 locus were cultured in the modified MinAB medium (MinABs), which had glucose and ammonium sulfate supplemented to the basal medium MinAB when necessary.
# Here, substrate selectivity of the 2.2 kb DAO1 promoter (PDAO1in) reporter strains was investigated on their inducibility by different D-amino acids.
# [1] = test system: DAO1 mRNA transcripts / Dao1 protein; settings: induction with D-alanine; cited from earlier work
structure (smiles),measurement,setting,value
C[C@H](N)C(=O)O [L-alanine],DAO1 mRNA expression,"DAO1 mRNA; MinABs medium, substance as the sole nitrogen source, FIG. 4B",negligible
same,reduction of luciferase expression,"DAO1 promoter (PDAO1in); equal level (70 mM) added as the competitor to 70 mM D-alanine, after 21 hr culture, FIG. 7A",about 5 fold
C[C@@H](N)C(=O)O [D-alanine],Dao1 protein share of the soluble intracellular proteins,[1],1.0%
same,time of peak of DAO1 mRNA transcripts after induction,[1],≤ 12 h
same,DAO1 mRNA level relative to control medium,"DAO1 mRNA; 6-hr after D-alanine supplementation, both glucose and ammonium sulfate omitted, FIG. 4B",~100 fold
same,DAO1 mRNA level increase,"DAO1 mRNA; cultured in the presence of 70 mM D-alanine, ACT1 reference, FIG. 4B",12-18 folds
same,induction of DAO1 promoter by D-amino acid,DAO1 promoter (PDAO1in),most preferably induced
same,luciferase expression among media,"DAO1 promoter (PDAO1in); MinABs supplemented with 70 mM D-alanine only, FIG. 7A",Best luciferase expression
same,concentration effective in driving expression of the reporter gene (as low as),"DAO1 promoter (PDAO1in); MinABs with 10 g/L glucose, FIG. 7B",20 mM
O=C(O)[C@H]1CCCN1 [D-proline],induction of DAO1 promoter by D-amino acid,DAO1 promoter (PDAO1in),similarly effective
N.N.O=S(=O)(O)O [ammonium sulfate],effect on D-alanine-induced DAO1in promoter activity,"DAO1 promoter (PDAO1in); added to MinABs with 70 mM D-alanine, glucose 10 g/L, ammonium sulfate 70 mM, FIG. 7A",little effect
same,effect of concentration on DAO1 promoter activity,"DAO1 promoter (PDAO1in); glucose 10-100 g/L, ammonium sulfate 5-50 mM, with 70 mM D-alanine, FIGS. 7C and 7D",only marginal effects
CC(C)[C@@H](N)C(=O)O [D-valine],induction of DAO1 promoter by D-amino acid,DAO1 promoter (PDAO1in),similarly effective
CSCC[C@@H](N)C(=O)O [D-methionine],induction of DAO1 promoter by D-amino acid,DAO1 promoter (PDAO1in),significantly less effective
CC(C)C[C@@H](N)C(=O)O [D-leucine],induction of DAO1 promoter by D-amino acid,DAO1 promoter (PDAO1in),significantly less effective
N[C@H](CO)C(=O)O [D-serine],induction of DAO1 promoter by D-amino acid,DAO1 promoter (PDAO1in),similarly effective
C[C@H](O)[C@@H](N)C(=O)O [D-threonine],induction of DAO1 promoter by D-amino acid,DAO1 promoter (PDAO1in),similarly effective
N[C@H](Cc1ccccc1)C(=O)O [D-phenylalanine],induction of DAO1 promoter by D-amino acid,DAO1 promoter (PDAO1in),significantly less effective
N[C@H](Cc1c[nH]c2ccccc12)C(=O)O [D-tryptophan],induction of DAO1 promoter by D-amino acid,DAO1 promoter (PDAO1in),significantly less effective
OCC(O)CO [glycerol],DAO1 transcription compared to that of glucose,"DAO1 mRNA; substance as the sole carbon source (YPG broth), 6 hour, 28° C., FIG. 4C",enhance DAO1 transcription
